Values quoted from earlier work as cited in patent US20050267009A1, “Method of Treatment of Acute and Persistent Pain” (priority 2004, published 2005).
Where two headings read alike, the source gives them in different places.

Legend:
nerve root injury = settings: topical application of disk tissue (nucleus pulposus)
nociceptors = settings: rat skin in vitro; for sensitization of the heat-evoked CGRP release: applied alone; for EC(50) of heat sensitization of CGRP release: heat-evoked CGRP release
prostaglandin E2 (PGE2) = settings: 10 days after CCI, treatment started 12 hours after surgery
COX = settings: 5 and 7 days after injection
[1] = test system: glia and proinflammatory cytokines; settings: intrathecal
spinal VR1 receptors = target: T1, spinal VR1 receptors (Rattus norvegicus, UniProt O35433); settings: spinal 0.5-30 microM; greater extent in sham operated than SNL rats
T1 construct: VR1 receptors, present on Adelta- and C-fibres and post-synaptic sites within the spinal cord dorsal horn; endogenous in cells; host or cells: rat spinal cord, in vivo electrophysiology
T1 sequence (O35433 whole entry): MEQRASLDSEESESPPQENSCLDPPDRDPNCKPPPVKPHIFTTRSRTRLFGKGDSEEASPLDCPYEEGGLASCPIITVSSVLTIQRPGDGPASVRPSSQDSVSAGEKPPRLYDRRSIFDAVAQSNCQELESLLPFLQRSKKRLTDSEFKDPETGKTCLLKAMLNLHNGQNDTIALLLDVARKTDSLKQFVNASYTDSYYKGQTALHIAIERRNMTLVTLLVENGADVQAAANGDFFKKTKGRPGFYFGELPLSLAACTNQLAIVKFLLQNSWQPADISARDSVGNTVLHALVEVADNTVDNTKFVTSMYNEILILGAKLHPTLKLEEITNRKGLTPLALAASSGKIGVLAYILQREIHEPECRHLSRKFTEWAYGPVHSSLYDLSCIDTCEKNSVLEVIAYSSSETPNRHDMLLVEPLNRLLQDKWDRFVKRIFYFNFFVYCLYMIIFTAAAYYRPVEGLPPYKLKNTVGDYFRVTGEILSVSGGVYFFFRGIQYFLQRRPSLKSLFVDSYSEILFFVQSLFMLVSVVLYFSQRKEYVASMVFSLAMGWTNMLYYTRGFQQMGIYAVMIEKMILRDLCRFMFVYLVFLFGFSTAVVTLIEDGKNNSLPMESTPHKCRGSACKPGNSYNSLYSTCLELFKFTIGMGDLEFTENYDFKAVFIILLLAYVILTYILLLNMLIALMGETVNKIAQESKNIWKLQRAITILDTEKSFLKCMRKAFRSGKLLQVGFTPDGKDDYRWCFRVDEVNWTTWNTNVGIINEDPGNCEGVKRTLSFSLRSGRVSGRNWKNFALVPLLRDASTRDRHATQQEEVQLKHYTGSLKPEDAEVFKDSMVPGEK

interleukin-10 = settings: prolonged administration
trigeminal nerve fibers = settings: dura mater
NOS-2 = settings: macrophages and astroglial cells, decreased NOS-2 activity and protein
[2] = test system: spinal neuronal responses
[3] = human, in vivo
[4] = in vivo
[5] = test system: spinal cord nociceptive transmission; settings: for wind-up activity: normal rats
[6] = systemic HU210 60 microg/kg, sham-operated rats

CC(=O)CCCCn1c(=O)c2c(ncn2C)n(C)c1=O [Pentoxifylline]
nerve root injury and swelling (dorsal root ganglion compartment syndrome) (nerve root injury): prevented

[Cl-].[Cl-].[Mn+2].c1cc2nc(c1)CN[C@@H]1CCCC[C@H]1NCCN[C@@H]1CCCC[C@H]1NC2 [M40403]
anti-hyperalgesic effects with naloxone (superoxide): not reversed

IL-8: cytokine interleukin-8
sensitization of the heat-evoked CGRP release (nociceptors): not

CC(C)Cc1ccc(C(C)C(=O)O)cc1 (stereo not shown) [ibuprofen]
PGE2 levels in injured nerves and DRG (prostaglandin E2 (PGE2)): reversed
mechanical allodynia induced by intraneural TNF (COX): reduced

O=C(O)CC(O)(C(=O)O)C(F)C(=O)O (stereo not shown) [fluorocitrate]
ipsilateral and mirror-image SIN-induced allodynias [1]: reversed

O=C1CCC(N2C(=O)c3ccccc3C2=O)C(=O)N1 (stereo not shown) [thalidomide]
epineurial IL-10 immunoreactive macrophages and recovery of endoneurial IL-10-IR (TNF-alpha; CCI): enhanced
thermal hyperalgesia and mechanical allodynia (TNF-alpha; CCI): reduces
endoneurial IL-1 beta-immunoreactivity and IL-6-IR (TNF-alpha; CCI, lesioned rat sciatic nerve): not altered
increase of endoneurial TNF-alpha (TNF-alpha; first week after CCI, immunohistochemistry and ELISA): reduced
decrease in CGRP-IR and SP-IR in the dorsal horn (TNF-alpha; operated animals): not influenced
increase in met-enkephalin in the dorsal horn (TNF-alpha; operated animals): further enhanced

TNF-alpha
maximum effect on heat-evoked CGRP release (nociceptors): 350%
EC(50) of heat sensitization of CGRP release (nociceptors): 3.1 ng/mL

CCCn1cnc2c1c(=O)n(CCCCC(C)=O)c(=O)n2C [propentofylline]
glial activation and enhanced spinal proinflammatory cytokines (glial activation; following peripheral nerve injury): inhibit
analgesic activity of morphine (glial activation; propentofylline treatment, neuropathic pain): restoration

Oc1cc2c(cc1O)CN(C(=S)NCCc1ccc(Cl)cc1)CCC2 [capsazepine]
noxious evoked responses of spinal neurones (spinal VR1 receptors): reduced

CNCCCN1c2ccccc2CCc2ccccc21 [desipramine]
secretion of the anti-inflammatory cytokine interleukin-10 (interleukin-10): significant increase

CCCCCCC(C)(C)c1cc(O)c2c(c1)OC(C)(C)[C@@H]1CC=C(CO)C[C@@H]21 [HU210]
C-fibre mediated post-discharge response of spinal neurones (spinal neurones; spinal administration 0.5-500 ng/50 microl, sham operated rats): significantly reduced
Adelta-fibre evoked responses of spinal neurones (spinal neurones; spinal administration, both sham operated and nerve injured rats): significantly reduced
Adelta-fibre evoked responses (spinal neurones; [6]): 48+/−5 % of control
overall C-fibre evoked response (spinal neurones; [6]): 54+/−8 % of control
post-discharge response (spinal neurones; [6]): 28+/−12 % of control
C- or Abeta-fibre evoked responses of spinal neurones (spinal neurones; systemic administration, nerve injured rats): did not significantly reduce

CNS(=O)(=O)Cc1ccc2[nH]cc(CCN(C)C)c2c1 [Sumatriptan]
nerve fiber induced plasma extravasation (trigeminal nerve fibers): blocks
nerve fiber mediated vasodilatation and dural arterial flow (trigeminal nerve fibers): only minor effects

C/C(=N\N=C(N)N)c1cc(NC(=O)CCCCCCCCC(=O)Nc2cc(/C(C)=N/N=C(N)N)cc(/C(C)=N/N=C(N)N)c2)cc(/C(C)=N/N=C(N)N)c1.Cl.Cl.Cl.Cl [CNI-1493]
ipsilateral and mirror-image SIN-induced allodynias [1]: prevented and reversed

N=C(N)NCCCCN [agmatine]
production of nitric oxide (NOS-2): inhibits

N=C(N)NC(=O)c1nc(Cl)c(N)nc1N [Amiloride]
blockade of ASICs (ASICs): not potent and not selective

IL-6: cytokine interleukin-6
sensitization of the heat-evoked CGRP release (nociceptors): did not induce heat sensitization
electrically evoked C-fibre, initial C-fibre, post discharge and wind-up ([2]; following neuropathy, spinal): dose-related inhibition
electrically evoked neuronal responses ([2]; naive rats, spinal 100-500 ng): no significant effect
mechanical neuronal responses ([2]; neuropathic rats, spinal): markedly inhibited

CN(C)CCC=C1c2ccccc2CCc2ccccc21 [amitriptyline]
secretion of the anti-inflammatory cytokine interleukin-10 (interleukin-10): significant increase

B1: IL-10: natural anti-inflammatory cytokine (protein, UniProt P29456 19-178, looked up)
Interleukin-10: SKGHSIRGDNNCTHFPVSQTHMLRELRAAFSQVKTFFQKKDQLDNILLTDSLLQDFKGYLGCQALSEMIKFYLVEVMPQAENHGPEIKEHLNSLGEKLKTLWIQLRRCHRFLPCENKSKAVEQVKNDFNKLQDKGVYKAMNEFDIFINCIEAYVTLKMKN
inflammatory mediator TNF-alpha after SCI (spinal cord injury; rats with SCI): decrease
less spinal cord tissue loss than in untreated rats (spinal cord injury; single injection within half an hour of SCI): 49%

B2: nerve growth factor: prototypic member of the neurotrophin family (protein, UniProt P25427 122-241, looked up)
Beta-nerve growth factor: SSTHPVFHMGEFSVCDSVSVWVGDKTTATDIKGKEVTVLGEVNINNSVFKQYFFETKCRAPNPVESGCRGIDSKHWNSYCTTTHTFVKALTTDDKQAAWRFIRIDTACVCVLSRKAARRG
adverse event [3]: induction of pain has been the major adverse event
hyperalgesia [4]: rapid onset of hyperalgesia

B3: IL-1 beta: proinflammatory cytokine interleukin-1 beta (protein, UniProt Q63264 117-268, looked up)
Interleukin-1 beta: VPIRQLHCRLRDEQQKCLVLSDPCELKALHLNGQNISQQVVFSMSFVQGETSNDKIPVALGLKGLNLYLSCVMKDGTPTLQLESVDPKQYPKKKMEKRFVFNKIEVKTKVEFESAQFPNWYISTSQAEHRPVFLGNSNGRDIVDFTMEPVSS
maximum effect on heat-evoked CGRP release (nociceptors): ~600%
EC(50) of heat sensitization of CGRP release (nociceptors): 2.7 ng/mL
wind-up scores ([5]; monoarthritic rats, any dose): did not significantly change
wind-up activity ([5]; higher doses (8.0 ng)): marginal insignificant effect
wind-up activity ([5]; low i.t. doses 0.03-2.0 ng): dose-dependently enhanced
